Format: physicochemical
Details: Tris-hydrochloric acid buffer (pH 7.5) 50 mmol/L, magnesium chloride 5 mmol/L, evaluation compound 1 µmol/L, 37°C, 60 minutes, average of duplicate
Protocol: The conversion from the evaluation compounds to brexpiprazole in a buffer (i.e., the stability of the evaluation compounds) was evaluated.
The Example 1 compound was dissolved in acetonitrile/water (1:1, v/v) to 10 mmol/L and further diluted with acetonitrile/water (1:1, v/v) to 100 µmol/L for use.
The other Example compounds and the Reference Example 5 compound to Reference Example 7 compound were each dissolved in DMSO to 10 mmol/L and further diluted with acetonitrile to 100 µmol/L for use, except for the following compounds.
The compounds of Examples 52, 95, 96, 117, and 130 (EX 52, EX 95, EX 96, EX 117, and EX 130) were dissolved in acetonitrile/water (8:2, v/v) to 10 mmol/L and further diluted with acetonitrile to 100 µmol/L for use.
The compound of Example 97 (EX 97) was dissolved in acetonitrile/water (8:2, v/v) to 10 mmol/L and further diluted with acetonitrile/water (8:2, v/v) to 100 µmol/L for use.
The compounds of Examples 15 and 116 (EX 15 and EX 116) were dissolved in DMSO to 1 mmol/L and further diluted with acetonitrile to 100 µmol/L for use.
These evaluation compound solutions were prepared at the time of use.
The reaction was conducted by preparing each reaction solution such that the final concentration of each component was as follows. The test was conducted in duplicate.
For the compounds of Examples 1 to 8, 10 to 19, 26 to 27, 37, 50, 87 to 89, 91, 116, 121, 123, 150, and 151 (EX 1 to EX 8, EX 10 to EX 19, EX 26 to EX 27, EX 37, EX 50, EX 87 to EX 89, EX 91, EX 116, EX 121, EX 123, EX 150, and EX 151), and the compounds of Reference Examples 5 to 7 (REX 5 to REX 7), the reaction solution without the evaluation compound (198 µl) was pre-incubated at 37°C for 3 minutes, and then each of the evaluation compound solutions (2 µl) was added and stirred; thereafter, the reaction was started at 37°C. At 0 minutes or 60 minutes after the start of the reaction, the reaction was stopped by adding and stirring a reaction stop solution (1000 µl) composed of acetonitrile/isopropanol (4:1, v/v) containing internal standard substances. However, the 0-minute reaction sample (198 µl) was prepared by adding the evaluation compound (2 µl) after adding the reaction stop solution (1000 µl). The samples after stopping the reaction were used as the measurement samples. Calibration curve samples with the same composition were prepared (final concentrations of the evaluation compounds and brexpiprazole: 0.01, 0.1, and 1 µmol/L, with the proviso that for the evaluation compounds only, the 0-minute reaction samples were also used as calibration curve samples for 1 µmol/L).
For the compounds of Examples 24 to 25, 28 to 29, 32 to 36, 40 to 49, 51 to 60, 62 to 64, 66 to 77, 80 to 86, 90, 92 to 111, 113, 115, 117 to 120, 122, 124 to 130, 132 to 147, and 152 to 160 (EX 24 to EX 25, EX 28 to EX 29, EX 32 to EX 36, EX 40 to EX 49, EX 51 to EX 60, EX 62 to EX 64, EX 66 to EX 77, EX 80 to EX 86, EX 90, EX 92 to EX 111, EX 113, EX 115, EX 117 to EX 120, EX 122, EX 124 to EX 130, EX 132 to EX 147, and EX 152 to EX 160), the reaction solution without the evaluation compound (148.5 µl) was pre-incubated at 37°C for 3 minutes, and then each of the evaluation compound solutions (1.5 µl) was added and stirred; thereafter, the reaction was started at 37°C. At 0 minutes or 60 minutes after the start of the reaction, the reaction was stopped by adding and stirring a reaction stop solution (600 µl) composed of acetonitrile/isopropanol (4:1, v/v) containing internal standard substances. However, the 0-minute reaction sample (148.5 µl) was prepared by adding the evaluation compound (1.5 µl) after adding the reaction stop solution (600 µl). The samples after stopping the reaction were used as the measurement samples. […]

| SMILES | Concentration of brexpiprazole formed | Concentration of evaluation compound decreased |
| --- | --- | --- |
| CCOCCOCCOCCOC(=O)OCOP(=O)([O-])OC[N+]1(CCCCOc2ccc3ccc(=O)[nH]c3c2)CCN(c2cccc3sccc23)CC1 [EX 136] | 0 nM | 0 nM |
| CC(C)(C)C(=O)OCOP(=O)([O-])OC[N+]1(CCCCOc2ccc3ccc(=O)[nH]c3c2)CCN(c2cccc3sccc23)CC1 [EX 25] | 0 nM | -10 nM |
| CC(C)NC(=O)CCCCCCCCC(=O)OCOP(=O)([O-])OC[N+]1(CCCCOc2ccc3ccc(=O)[nH]c3c2)CCN(c2cccc3sccc23)CC1 [EX 76] | 0 nM | 0 nM |
| CCCCCCCC(=O)OC(C)OP(=O)([O-])OC[N+]1(CCCCOc2ccc3ccc(=O)[nH]c3c2)CCN(c2cccc3sccc23)CC1 (centres unmarked) [EX 26] | 0 nM | 50 nM |
| CCNP(=O)([O-])OC[N+]1(CCCCOc2ccc3ccc(=O)[nH]c3c2)CCN(c2cccc3sccc23)CC1 [EX 151] | 0 nM | -10 nM |
| O=C(OCOP(=O)([O-])OC[N+]1(CCCCOc2ccc3ccc(=O)[nH]c3c2)CCN(c2cccc3sccc23)CC1)C12CC3CC(CC(C3)C1)C2 [EX 124] | 0 nM | 100 nM |
| CC(C)(CC(=O)O)CC(=O)OCOP(=O)([O-])OC[N+]1(CCCCOc2ccc3ccc(=O)[nH]c3c2)CCN(c2cccc3sccc23)CC1 [EX 71] | 0 nM | 100 nM |
| COCCOC(=O)CCCCCCCCCCC(=O)OCOP(=O)([O-])OC[N+]1(CCCCOc2ccc3ccc(=O)[nH]c3c2)CCN(c2cccc3sccc23)CC1 [EX 77] | 0 nM | 110 nM |
| O=C(OCCCCCCOP(=O)([O-])OC[N+]1(CCCCOc2ccc3ccc(=O)[nH]c3c2)CCN(c2cccc3sccc23)CC1)c1ccccc1 [EX 57] | 0 nM | 90 nM |
| O=c1ccc2ccc(OCCCC[N+]3(COP(=O)([O-])OCC4(CO)CC4)CCN(c4cccc5sccc45)CC3)cc2[nH]1 [EX 47] | 0 nM | 0 nM |
| COCCOCCOC(=O)OCOP(=O)([O-])OC[N+]1(CCCCOc2ccc3ccc(=O)[nH]c3c2)CCN(c2cccc3sccc23)CC1 [EX 34] | 0 nM | 10 nM |
| CCCCCCCCOP(=O)([O-])OC[N+]1(CCCCOc2ccc3ccc(=O)[nH]c3c2)CCN(c2cccc3sccc23)CC1 [EX 37] | 0 nM | 60 nM |
| CCCCOCCOCCOC(=O)OCOP(=O)([O-])OC[N+]1(CCCCOc2ccc3ccc(=O)[nH]c3c2)CCN(c2cccc3sccc23)CC1 [EX 135] | 0 nM | 70 nM |
| O=C(OCCCOC1CCCCO1)OCOP(=O)([O-])OC[N+]1(CCCCOc2ccc3ccc(=O)[nH]c3c2)CCN(c2cccc3sccc23)CC1 (centres unmarked) [EX 140] | 0 nM | -20 nM |
| CC(C)OC(=O)[C@H](C)NP(=O)([O-])OC[N+]1(CCCCOc2ccc3ccc(=O)[nH]c3c2)CCN(c2cccc3sccc23)CC1 [EX 159] | 0 nM | 60 nM |
| C[C@@H](OP(=O)([O-])OC[N+]1(CCCCOc2ccc3ccc(=O)[nH]c3c2)CCN(c2cccc3sccc23)CC1)C(=O)OC(C)(C)C [EX 106] | 0 nM | 70 nM |

Continued, values first:

| Concentration of brexpiprazole formed | Concentration of evaluation compound decreased | SMILES |
| --- | --- | --- |
| 0 nM | 140 nM | COCC1CCC(COP(=O)([O-])OC[N+]2(CCCCOc3ccc4ccc(=O)[nH]c4c3)CCN(c3cccc4sccc34)CC2)CC1 (centres unmarked) [EX 54] |
| 0 nM | 40 nM | O=C(OCOP(=O)([O-])OC[N+]1(CCCCOc2ccc3ccc(=O)[nH]c3c2)CCN(c2cccc3sccc23)CC1)C1CCOCC1 [EX 127] |
| 0 nM | 90 nM | CCOC(=O)OCOP(=O)([O-])OC[N+]1(CCCCOc2ccc3ccc(=O)[nH]c3c2)CCN(c2cccc3sccc23)CC1 [EX 129] |
| 0 nM | 130 nM | O=C(CCO)OCOP(=O)([O-])OC[N+]1(CCCCOc2ccc3ccc(=O)[nH]c3c2)CCN(c2cccc3sccc23)CC1 [EX 125] |
| 0 nM | 110 nM | O=C(OCCCN1CCOCC1)OCOP(=O)([O-])OC[N+]1(CCCCOc2ccc3ccc(=O)[nH]c3c2)CCN(c2cccc3sccc23)CC1 [EX 146] |
| 0 nM | 60 nM | CC(O)CCOP(=O)([O-])OC[N+]1(CCCCOc2ccc3ccc(=O)[nH]c3c2)CCN(c2cccc3sccc23)CC1 (centres unmarked) [EX 40] |
| 0 nM | 70 nM | CCOC(=O)C1CCN(CCOP(=O)([O-])OC[N+]2(CCCCOc3ccc4ccc(=O)[nH]c4c3)CCN(c3cccc4sccc34)CC2)CC1 [EX 147] |
| 0 nM | -10 nM | CCOCCC(=O)OCOP(=O)([O-])OC[N+]1(CCCCOc2ccc3ccc(=O)[nH]c3c2)CCN(c2cccc3sccc23)CC1 [EX 29] |
| 0 nM | -10 nM | O=c1ccc2ccc(OCCCC[N+]3(COP(=O)([O-])OCCOCCO)CCN(c4cccc5sccc45)CC3)cc2[nH]1 [EX 93] |
| 0 nM | 110 nM | O=c1ccc2ccc(OCCCC[N+]3(COP(=O)([O-])OCCCCCO)CCN(c4cccc5sccc45)CC3)cc2[nH]1 [EX 92] |
| 0 nM | 120 nM | O=c1ccc2ccc(OCCCC[N+]3(COP(=O)([O-])OCC4CC4)CCN(c4cccc5sccc45)CC3)cc2[nH]1 [EX 91] |
| 0 nM | 130 nM | CCOCCOC(=O)OCOP(=O)([O-])OC[N+]1(CCCCOc2ccc3ccc(=O)[nH]c3c2)CCN(c2cccc3sccc23)CC1 [EX 132] |
| 0 nM | 90 nM | C[C@@H]1CN(CCOP(=O)([O-])OC[N+]2(CCCCOc3ccc4ccc(=O)[nH]c4c3)CCN(c3cccc4sccc34)CC2)C[C@H](C)O1 [EX 116] |
| 0 nM | 70 nM | CCOC(=O)C(CC)OP(=O)([O-])OC[N+]1(CCCCOc2ccc3ccc(=O)[nH]c3c2)CCN(c2cccc3sccc23)CC1 (centres unmarked) [EX 110] |
| 0 nM | 50 nM | CCC(C)(C)C(=O)OCOP(=O)([O-])OC[N+]1(CCCCOc2ccc3ccc(=O)[nH]c3c2)CCN(c2cccc3sccc23)CC1 [EX 122] |

Source: EP4707284A1, “HETEROCYCLIC COMPOUND AND USE THEREOF” (Otsuka Pharmaceutical Co., Ltd., priority 2023, dated 2024)
